Reference: the supplement of paper PMC11208160

Assay: recombinant barcode read abundance after kanamycin selection (control-corrected) (log10(CPM+1)); higher = more efficient recombination; sequences stand for … in AGTGCAGAGAAAATCGGCCAGTTTTCTCTGCCTGCAGTCCGCATGCCGT…AGATTTATGCAGCGGACTGCCTTTCTCCCAAAGTGATAAACCGGACAGTATCATGGACCGGTTTTCCCGGTAATCCGTATTTGCAAGGTTGGTTTCACT; site = the 11-nt target
Method in brief: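 Values are log10(CPM+1) from a pooled E. coli screen of targets paired with IS621 bridge RNA target-binding loops. Recombination efficiency here means counts per million of recombinant-junction barcodes, averaged and control-corrected. Plates were chloramphenicol/ampicillin LB agar for the control and chloramphenicol/ampicillin/kanamycin with 0.1 mM IPTG, two replicates each.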
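Further: IS621 recombinase and bridge RNA in Escherichia coli cells.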

With “GGAGGGTCTTGGGTTCTAACCTGTTGCTT (site AGAGGGTCTAA)” the “recombinant barcode read abundance (log10)” value was 0.693.
For “GGAGGGTCTTGGGTTCTAACCTGTTGCTT (site CGAGGGTCTAA)”, the “recombinant barcode read abundance (log10)” value was 0.229.
With “GGAGGGTCTTGGGTTCTAACCTGTTGCTT (site GGAGGGTCTAA)” the “recombinant barcode read abundance (log10)” value was 1.72.
For “GGAGGGTCTTGGGTTCTAACCTGTTGCTT (site TGAGGGTCTAA)”, the “recombinant barcode read abundance (log10)” value was 0.292.
With “GGATACACTTGGGTTCTAACCTGTTGCCG (site GGATACACTCG)” the “recombinant barcode read abundance (log10)” value was 1.66.
For “GGATACACTTGGGTTCTAACCTGTTGCCG (site TAGACGGCTAT)”, the “recombinant barcode read abundance (log10)” value was 0.342.
In the case of “GGATACACTTGGGTTCTAACCTGTTGCGT (site GGATACACTAC)”, the “recombinant barcode read abundance (log10)” value is reported as 2.76.
In the case of “GGATACACTTGGGTTCTAACCTGTTGCGT (site GGATAGACTAC)”, the “recombinant barcode read abundance (log10)” value is reported as 0.0769.
For “GGATCCACTTGGGTTCTAACCTGTTGCCT (site AGATCCACTAG)”, the “recombinant barcode read abundance (log10)” value was 0.306.
For “GGATCCACTTGGGTTCTAACCTGTTGCCT (site CGATCCACTAG)”, the “recombinant barcode read abundance (log10)” value was 0.0861.
With “GGATCCACTTGGGTTCTAACCTGTTGCCT (site GGATCCACTAG)” the “recombinant barcode read abundance (log10)” value was 0.399.
In the case of “GGATCCACTTGGGTTCTAACCTGTTGCCT (site TGATCCACTAG)”, the “recombinant barcode read abundance (log10)” value is reported as 0.139.
With “GGATCCTCTTGGGTTCTAACCTGTTGCAT (site GGATCCTCTAT)” the “recombinant barcode read abundance (log10)” value was 1.69.
With “GGATCCTCTTGGGTTCTAACCTGTTGCAT (site GGCTCCTCTAT)” the “recombinant barcode read abundance (log10)” value was 0.149.
For “GGATCTACTTGGGTTCTAACCTGTTGCCT (site GAATCTACTAG)”, the “recombinant barcode read abundance (log10)” value was 0.174.
For “GGATCTACTTGGGTTCTAACCTGTTGCCT (site GCATCTACTAG)”, the “recombinant barcode read abundance (log10)” value was 0.514.
In the case of “GGATCTACTTGGGTTCTAACCTGTTGCCT (site GGATCTACTAG)”, the “recombinant barcode read abundance (log10)” value is reported as 0.235.
With “GGATCTACTTGGGTTCTAACCTGTTGCCT (site GTATCTACTAG)” the “recombinant barcode read abundance (log10)” value was 0.0262.
With “GGATTGTCTTGGGTTCTAACCTGTTGCTT (site GGATTGTCTAA)” the “recombinant barcode read abundance (log10)” value was 0.742.
In the case of “GGATTGTCTTGGGTTCTAACCTGTTGCTT (site GGCTAGTCTAA)”, the “recombinant barcode read abundance (log10)” value is reported as 0.0862.
For “GGCACAACTTGGGTTCTAACCTGTTGCCT (site GGCACAACTAG)”, the “recombinant barcode read abundance (log10)” value was 0.804.
For “GGCACAACTTGGGTTCTAACCTGTTGCCT (site GGCACCACTAG)”, the “recombinant barcode read abundance (log10)” value was 0.0796.
For “GGCACAACTTGGGTTCTAACCTGTTGCCT (site GGCACGACTAG)”, the “recombinant barcode read abundance (log10)” value was 0.262.
With “GGCACAACTTGGGTTCTAACCTGTTGCCT (site GGCACTACTAG)” the “recombinant barcode read abundance (log10)” value was 0.0426.
With “GGCACAGCTTGGGTTCTAACCTGTTGCCT (site GGCACAGCTAG)” the “recombinant barcode read abundance (log10)” value was 0.
In the case of “GGCACAGCTTGGGTTCTAACCTGTTGCCT (site GGCACCGCTAG)”, the “recombinant barcode read abundance (log10)” value is reported as 0.171.
With “GGCACAGCTTGGGTTCTAACCTGTTGCCT (site GGCACGGCTAG)” the “recombinant barcode read abundance (log10)” value was 0.067.
For “GGCACAGCTTGGGTTCTAACCTGTTGCCT (site GGCACTGCTAG)”, the “recombinant barcode read abundance (log10)” value was 0.0566.
In the case of “GGCACCACTTGGGTTCTAACCTGTTGCCG (site GGCACCACTCG)”, the “recombinant barcode read abundance (log10)” value is reported as 0.295.
In the case of “GGCACCACTTGGGTTCTAACCTGTTGCCG (site TCTTGACCTAA)”, the “recombinant barcode read abundance (log10)” value is reported as 0.251.
With “GGCACCACTTGGGTTCTAACCTGTTGCCT (site GGCACAACTAG)” the “recombinant barcode read abundance (log10)” value was 0.0402.
In the case of “GGCACCACTTGGGTTCTAACCTGTTGCCT (site GGCACCACTAG)”, the “recombinant barcode read abundance (log10)” value is reported as 0.722.
In the case of “GGCACCACTTGGGTTCTAACCTGTTGCCT (site GGCACGACTAG)”, the “recombinant barcode read abundance (log10)” value is reported as 0.0916.
In the case of “GGCACCACTTGGGTTCTAACCTGTTGCCT (site GGCACTACTAG)”, the “recombinant barcode read abundance (log10)” value is reported as 0.0174.
For “GGCACTACTTGGGTTCTAACCTGTTGCCT (site GGCACAACTAG)”, the “recombinant barcode read abundance (log10)” value was 0.0867.
In the case of “GGCACTACTTGGGTTCTAACCTGTTGCCT (site GGCACCACTAG)”, the “recombinant barcode read abundance (log10)” value is reported as 0.716.
For “GGCACTACTTGGGTTCTAACCTGTTGCCT (site GGCACGACTAG)”, the “recombinant barcode read abundance (log10)” value was 0.166.
With “GGCACTACTTGGGTTCTAACCTGTTGCCT (site GGCACTACTAG)” the “recombinant barcode read abundance (log10)” value was 0.392.
For “GGCAGCTCTTGGGTTCTAACCTGTTGCTT (site GGCAGATCTAA)”, the “recombinant barcode read abundance (log10)” value was 0.367.
In the case of “GGCAGCTCTTGGGTTCTAACCTGTTGCTT (site GGCAGCTCTAA)”, the “recombinant barcode read abundance (log10)” value is reported as 0.281.
For “GGCAGCTCTTGGGTTCTAACCTGTTGCTT (site GGCAGGTCTAA)”, the “recombinant barcode read abundance (log10)” value was 0.302.
In the case of “GGCAGCTCTTGGGTTCTAACCTGTTGCTT (site GGCAGTTCTAA)”, the “recombinant barcode read abundance (log10)” value is reported as 0.0524.
With “GGCAGTCCTTGGGTTCTAACCTGTTGCCT (site GGCAGTCCTAA)” the “recombinant barcode read abundance (log10)” value was 0.111.
With “GGCAGTCCTTGGGTTCTAACCTGTTGCCT (site GGCAGTCCTAG)” the “recombinant barcode read abundance (log10)” value was 0.206.
In the case of “GGCATCCCTTGGGTTCTAACCTGTTGCTA (site GGCATCCCTTA)”, the “recombinant barcode read abundance (log10)” value is reported as 0.654.
For “GGCATCCCTTGGGTTCTAACCTGTTGCTA (site TTACAGGCTCG)”, the “recombinant barcode read abundance (log10)” value was 0.205.
In the case of “GGCATTCCTTGGGTTCTAACCTGTTGCCT (site GGCACTCCTAG)”, the “recombinant barcode read abundance (log10)” value is reported as 0.0331.
In the case of “GGCATTCCTTGGGTTCTAACCTGTTGCCT (site GGCATTCCTAG)”, the “recombinant barcode read abundance (log10)” value is reported as 0.0435.
With “GGCCTCCCTTGGGTTCTAACCTGTTGCCT (site GGCATCCCTAG)” the “recombinant barcode read abundance (log10)” value was 0.242.
In the case of “GGCCTCCCTTGGGTTCTAACCTGTTGCCT (site GGCCTCCCTAG)”, the “recombinant barcode read abundance (log10)” value is reported as 0.977.
For “GGCCTCCCTTGGGTTCTAACCTGTTGCCT (site GGCGTCCCTAG)”, the “recombinant barcode read abundance (log10)” value was 0.947.
For “GGCCTCCCTTGGGTTCTAACCTGTTGCCT (site GGCTTCCCTAG)”, the “recombinant barcode read abundance (log10)” value was 0.0579.
For “GGCCTGCCTTGGGTTCTAACCTGTTGCCT (site GGCCTGCCTAG)”, the “recombinant barcode read abundance (log10)” value was 1.31.
With “GGCCTGCCTTGGGTTCTAACCTGTTGCCT (site GTCATGCCTAG)” the “recombinant barcode read abundance (log10)” value was 0.0864.
With “GGCGAACCTTGGGTTCTAACCTGTTGCAT (site GACGATCCTAT)” the “recombinant barcode read abundance (log10)” value was 0.126.
In the case of “GGCGAACCTTGGGTTCTAACCTGTTGCAT (site GGCGAACCTAT)”, the “recombinant barcode read abundance (log10)” value is reported as 1.82.
In the case of “GGCGGTACTTGGGTTCTAACCTGTTGCCT (site GGCGGTACTAG)”, the “recombinant barcode read abundance (log10)” value is reported as 1.12.
With “GGCGGTACTTGGGTTCTAACCTGTTGCCT (site GGCTGCACTAG)” the “recombinant barcode read abundance (log10)” value was 0.197.
With “GGCGTCCCTTGGGTTCTAACCTGTTGCCT (site GGCATCCCTAG)” the “recombinant barcode read abundance (log10)” value was 0.284.
For “GGCGTCCCTTGGGTTCTAACCTGTTGCCT (site GGCCTCCCTAG)”, the “recombinant barcode read abundance (log10)” value was 0.286.
In the case of “GGCGTCCCTTGGGTTCTAACCTGTTGCCT (site GGCGTCCCTAG)”, the “recombinant barcode read abundance (log10)” value is reported as 1.3.
With “GGCGTCCCTTGGGTTCTAACCTGTTGCCT (site GGCTTCCCTAG)” the “recombinant barcode read abundance (log10)” value was 0.0801.
With “GGCTAGCCTTGGGTTCTAACCTGTTGCCT (site GGCTAGCCTAG)” the “recombinant barcode read abundance (log10)” value was 0.423.
With “GGCTAGCCTTGGGTTCTAACCTGTTGCCT (site TGTTAGCCTAG)” the “recombinant barcode read abundance (log10)” value was 0.
In the case of “GGCTCCTCTTGGGTTCTAACCTGTTGCAT (site GGATCCTCTAT)”, the “recombinant barcode read abundance (log10)” value is reported as 0.0148.
With “GGCTCCTCTTGGGTTCTAACCTGTTGCAT (site GGCTCCTCTAT)” the “recombinant barcode read abundance (log10)” value was 0.907.
For “GGCTCCTCTTGGGTTCTAACCTGTTGCCA (site GGCTCCTCTTG)”, the “recombinant barcode read abundance (log10)” value was 0.674.
In the case of “GGCTCCTCTTGGGTTCTAACCTGTTGCCA (site GGTTCATCTTG)”, the “recombinant barcode read abundance (log10)” value is reported as 0.013.
For “GGCTGCCCTTGGGTTCTAACCTGTTGCCT (site GACTGCCCTAG)”, the “recombinant barcode read abundance (log10)” value was 0.156.
For “GGCTGCCCTTGGGTTCTAACCTGTTGCCT (site GCCTGCCCTAG)”, the “recombinant barcode read abundance (log10)” value was 0.57.
For “GGCTGCCCTTGGGTTCTAACCTGTTGCCT (site GGCTGCCCTAG)”, the “recombinant barcode read abundance (log10)” value was 0.258.
For “GGCTGCCCTTGGGTTCTAACCTGTTGCCT (site GTCTGCCCTAG)”, the “recombinant barcode read abundance (log10)” value was 0.149.
With “GGGAACCCTTGGGTTCTAACCTGTTGCTC (site GGGAACCCTAA)” the “recombinant barcode read abundance (log10)” value was 0.131.
With “GGGAACCCTTGGGTTCTAACCTGTTGCTC (site GGGAACCCTCA)” the “recombinant barcode read abundance (log10)” value was 0.659.
In the case of “GGGAACCCTTGGGTTCTAACCTGTTGCTC (site GGGAACCCTGA)”, the “recombinant barcode read abundance (log10)” value is reported as 1.16.
For “GGGAACCCTTGGGTTCTAACCTGTTGCTC (site GGGAACCCTTA)”, the “recombinant barcode read abundance (log10)” value was 0.509.
For “GGGAACCCTTGGGTTCTAACCTGTTGCTT (site GGGAACCCTAA)”, the “recombinant barcode read abundance (log10)” value was 1.25.
In the case of “GGGAACCCTTGGGTTCTAACCTGTTGCTT (site GGGAACCCTCA)”, the “recombinant barcode read abundance (log10)” value is reported as 0.386.
For “GGGAACCCTTGGGTTCTAACCTGTTGCTT (site GGGAACCCTGA)”, the “recombinant barcode read abundance (log10)” value was 0.0941.
In the case of “GGGAACCCTTGGGTTCTAACCTGTTGCTT (site GGGAACCCTTA)”, the “recombinant barcode read abundance (log10)” value is reported as 0.149.
For “GGGAAGACTTGGGTTCTAACCTGTTGCCT (site GGAAAGACTAG)”, the “recombinant barcode read abundance (log10)” value was 1.56.
For “GGGAAGACTTGGGTTCTAACCTGTTGCCT (site GGCAAGACTAG)”, the “recombinant barcode read abundance (log10)” value was 0.0845.
In the case of “GGGAAGACTTGGGTTCTAACCTGTTGCCT (site GGGAAGACTAG)”, the “recombinant barcode read abundance (log10)” value is reported as 2.55.
With “GGGAAGACTTGGGTTCTAACCTGTTGCCT (site GGTAAGACTAG)” the “recombinant barcode read abundance (log10)” value was 0.333.
With “GGGAATGCTTGGGTTCTAACCTGTTGCCT (site GGGAACGCTAG)” the “recombinant barcode read abundance (log10)” value was 0.108.
With “GGGAATGCTTGGGTTCTAACCTGTTGCCT (site GGGAATGCTAG)” the “recombinant barcode read abundance (log10)” value was 2.35.
